Bridge positions count the residues as written; N and C are the ends. Ends that are not written are not given here.
System: patients with chronic idiopathic constipation (CIC)
Assay: Second phase 3 CIC trial: change from baseline in stool consistency (BSFS)
Format: in vivo, human
[1] = 3 mg, Week 7, All Randomized (includes Duplicate Patients)
[2] = 3 mg, Week 7, ITT Population-Excluding Duplicate Patients
[3] = 3 mg, Week 8, All Randomized (includes Duplicate Patients)
[4] = 3 mg, Week 8, ITT Population-Excluding Duplicate Patients
[5] = 3 mg, Week 9, All Randomized (includes Duplicate Patients)
[6] = 3 mg, Week 9, ITT Population-Excluding Duplicate Patients
[7] = 3 mg, Week 10, All Randomized (includes Duplicate Patients)
[8] = 3 mg, Week 10, ITT Population-Excluding Duplicate Patients
[9] = 3 mg, Week 11, All Randomized (includes Duplicate Patients)
[10] = 3 mg, Week 11, ITT Population-Excluding Duplicate Patients
[11] = 3 mg, Week 12, All Randomized (includes Duplicate Patients)
[12] = 3 mg, Week 12, ITT Population-Excluding Duplicate Patients
[13] = 3 mg, overall average estimate across the 12-week treatment period, All Randomized (includes Duplicate Patients)
[14] = 3 mg, overall average estimate across the 12-week treatment period, ITT Population
[15] = 3 mg, overall average estimate across the 12-week treatment period, ITT Population-Excluding Duplicate Patients
[16] = 6 mg, Post-Treatment Week 13, All Randomized (includes Duplicate Patients)
[17] = 6 mg, Post-Treatment Week 13, ITT Population
[18] = 6 mg, Post-Treatment Week 13, ITT Population-Excluding Duplicate Patients
[19] = 6 mg, Post-Treatment Week 14, All Randomized (includes Duplicate Patients)
[20] = 6 mg, Post-Treatment Week 14, ITT Population

Asn^1-Asp^2-Glu^3-Cys^4-Glu^5-Leu^6-Cys^7-Val^8-Asn^9-Val^10-Ala^11-Cys^12-Thr^13-Gly^14-Cys^15-Leu^16 (NDECELCVNVACTGCL; disulfide 4-12, 7-15) [Plecanatide, uroguanylin analogue, guanylate cyclase-C agonist; (C4:C12, C7:C15) bicycle peptide]
Change from Baseline in Stool Consistency, Difference from Placebo [1]: 0.60 | Change from Baseline in Stool Consistency, LS Mean (SE) [1]: 1.46 (0.072) | Change from Baseline in Stool Consistency, Difference from Placebo (3 mg, Week 7, ITT Population): 0.60 | Change from Baseline in Stool Consistency, LS Mean (SE) (3 mg, Week 7, ITT Population): 1.49 (0.074) | Change from Baseline in Stool Consistency, Mean (SD) (3 mg, Week 7, ITT Population): 1.58 (1.447) | Change from Baseline in Stool Consistency, Difference from Placebo [2]: 0.61 | Change from Baseline in Stool Consistency, LS Mean (SE) [2]: 1.50 (0.075) | Change from Baseline in Stool Consistency, Mean (SD) [2]: 1.60 (1.452) | Change from Baseline in Stool Consistency, Difference from Placebo [3]: 0.67 | Change from Baseline in Stool Consistency, LS Mean (SE) [3]: 1.58 (0.072) | Change from Baseline in Stool Consistency, Difference from Placebo (3 mg, Week 8, ITT Population): 0.66 | Change from Baseline in Stool Consistency, LS Mean (SE) (3 mg, Week 8, ITT Population): 1.60 (0.075) | Change from Baseline in Stool Consistency, Mean (SD) (3 mg, Week 8, ITT Population): 1.71 (1.496) | Change from Baseline in Stool Consistency, Difference from Placebo [4]: 0.67 | Change from Baseline in Stool Consistency, LS Mean (SE) [4]: 1.60 (0.075) | Change from Baseline in Stool Consistency, Mean (SD) [4]: 1.71 (1.500) | Change from Baseline in Stool Consistency, Difference from Placebo [5]: 0.68 | Change from Baseline in Stool Consistency, LS Mean (SE) [5]: 1.55 (0.073) | Change from Baseline in Stool Consistency, Difference from Placebo (3 mg, Week 9, ITT Population): 0.68 | Change from Baseline in Stool Consistency, LS Mean (SE) (3 mg, Week 9, ITT Population): 1.57 (0.075) | Change from Baseline in Stool Consistency, Mean (SD) (3 mg, Week 9, ITT Population): 1.68 (1.468) | Change from Baseline in Stool Consistency, Difference from Placebo [6]: 0.66 | Change from Baseline in Stool Consistency, LS Mean (SE) [6]: 1.57 (0.076) | Change from Baseline in Stool Consistency, Mean (SD) [6]: 1.68 (1.468) | Change from Baseline in Stool Consistency, Difference from Placebo [7]: 0.62 | Change from Baseline in Stool Consistency, LS Mean (SE) [7]: 1.52 (0.073) | Change from Baseline in Stool Consistency, Difference from Placebo (3 mg, Week 10, ITT Population): 0.61 | Change from Baseline in Stool Consistency, LS Mean (SE) (3 mg, Week 10, ITT Population): 1.54 (0.075) | Change from Baseline in Stool Consistency, Mean (SD) (3 mg, Week 10, ITT Population): 1.65 (1.539) | Change from Baseline in Stool Consistency, Difference from Placebo [8]: 0.61 | Change from Baseline in Stool Consistency, LS Mean (SE) [8]: 1.54 (0.076) | Change from Baseline in Stool Consistency, Mean (SD) [8]: 1.65 (1.548) | Change from Baseline in Stool Consistency, Difference from Placebo [9]: 0.55 | Change from Baseline in Stool Consistency, LS Mean (SE) [9]: 1.48 (0.073) | Change from Baseline in Stool Consistency, Difference from Placebo (3 mg, Week 11, ITT Population): 0.54 | Change from Baseline in Stool Consistency, LS Mean (SE) (3 mg, Week 11, ITT Population): 1.50 (0.075) | Change from Baseline in Stool Consistency, Mean (SD) (3 mg, Week 11, ITT Population): 1.58 (1.598) | Change from Baseline in Stool Consistency, Difference from Placebo [10]: 0.54 | Change from Baseline in Stool Consistency, LS Mean (SE) [10]: 1.51 (0.076) | Change from Baseline in Stool Consistency, Mean (SD) [10]: 1.59 (1.595) | Change from Baseline in Stool Consistency, Difference from Placebo [11]: 0.57 | Change from Baseline in Stool Consistency, LS Mean (SE) [11]: 1.57 (0.073) | Change from Baseline in Stool Consistency, Difference from Placebo (3 mg, Week 12, ITT Population): 0.58 | Change from Baseline in Stool Consistency, LS Mean (SE) (3 mg, Week 12, ITT Population): 1.60 (0.075) | Change from Baseline in Stool Consistency, Mean (SD) (3 mg, Week 12, ITT Population): 1.69 (1.480) | Change from Baseline in Stool Consistency, Difference from Placebo [12]: 0.58 | Change from Baseline in Stool Consistency, LS Mean (SE) [12]: 1.61 (0.076) | Change from Baseline in Stool Consistency, Mean (SD) [12]: 1.70 (1.476) | Change from Baseline in Stool Consistency, Difference from Placebo [13]: 0.63 | Change from Baseline in Stool Consistency, LS Mean (SE) [13]: 1.48 (0.058) | Change from Baseline in Stool Consistency, Difference from Placebo [14]: 0.62 | Change from Baseline in Stool Consistency, LS Mean (SE) [14]: 1.49 (0.060) | Change from Baseline in Stool Consistency, Difference from Placebo [15]: 0.62 | Change from Baseline in Stool Consistency, LS Mean (SE) [15]: 1.50 (0.061) | Change from Baseline in Stool Consistency, Difference from Placebo [16]: 0.09 | Change from Baseline in Stool Consistency, LS Mean (SE) [16]: 1.08 (0.070) | Change from Baseline in Stool Consistency, Mean (SD) [16]: 1.03 (1.408) | Change from Baseline in Stool Consistency, Difference from Placebo [17]: 0.09 | Change from Baseline in Stool Consistency, LS Mean (SE) [17]: 1.08 (0.071) | Change from Baseline in Stool Consistency, Mean (SD) [17]: 1.04 (1.410) | Change from Baseline in Stool Consistency, Difference from Placebo [18]: 0.09 | Change from Baseline in Stool Consistency, LS Mean (SE) [18]: 1.08 (0.072) | Change from Baseline in Stool Consistency, Mean (SD) [18]: 1.04 (1.414) | Change from Baseline in Stool Consistency, Difference from Placebo [19]: 0.07 | Change from Baseline in Stool Consistency, LS Mean (SE) [19]: 1.06 (0.072) | Change from Baseline in Stool Consistency, Mean (SD) [19]: 1.04 (1.393) | Change from Baseline in Stool Consistency, Difference from Placebo [20]: 0.06 | Change from Baseline in Stool Consistency, LS Mean (SE) [20]: 1.07 (0.074) | Change from Baseline in Stool Consistency, Mean (SD) [20]: 1.06 (1.354) | Change from Baseline in Stool Consistency, Difference from Placebo (6 mg, Post-Treatment Week 14, ITT Population-Excluding Duplicate Patients): 0.06
